Reference: US12428415B2, “Matriptase 2 inhibitors and uses thereof” (Disc Medicine, Inc., priority 2018, dated 2025)

target: T1, Human Recombinant Matriptase 2 (Homo sapiens, UniProt Q8IU80); experiment: Matriptase 2 fluorescence based inhibition assay, Method A (100 mM TRIS pH 9, 1 mg/mL BSA); type: biochemical; conditions: 1 uM; Assay Used A; read-out: Mar-2 % inhibition at 1 uM
T1 construct: purchased Enzo Life Sciences (an in-house preparation was also used) ALX-201-752-1
T1 sequence (Q8IU80 1-811): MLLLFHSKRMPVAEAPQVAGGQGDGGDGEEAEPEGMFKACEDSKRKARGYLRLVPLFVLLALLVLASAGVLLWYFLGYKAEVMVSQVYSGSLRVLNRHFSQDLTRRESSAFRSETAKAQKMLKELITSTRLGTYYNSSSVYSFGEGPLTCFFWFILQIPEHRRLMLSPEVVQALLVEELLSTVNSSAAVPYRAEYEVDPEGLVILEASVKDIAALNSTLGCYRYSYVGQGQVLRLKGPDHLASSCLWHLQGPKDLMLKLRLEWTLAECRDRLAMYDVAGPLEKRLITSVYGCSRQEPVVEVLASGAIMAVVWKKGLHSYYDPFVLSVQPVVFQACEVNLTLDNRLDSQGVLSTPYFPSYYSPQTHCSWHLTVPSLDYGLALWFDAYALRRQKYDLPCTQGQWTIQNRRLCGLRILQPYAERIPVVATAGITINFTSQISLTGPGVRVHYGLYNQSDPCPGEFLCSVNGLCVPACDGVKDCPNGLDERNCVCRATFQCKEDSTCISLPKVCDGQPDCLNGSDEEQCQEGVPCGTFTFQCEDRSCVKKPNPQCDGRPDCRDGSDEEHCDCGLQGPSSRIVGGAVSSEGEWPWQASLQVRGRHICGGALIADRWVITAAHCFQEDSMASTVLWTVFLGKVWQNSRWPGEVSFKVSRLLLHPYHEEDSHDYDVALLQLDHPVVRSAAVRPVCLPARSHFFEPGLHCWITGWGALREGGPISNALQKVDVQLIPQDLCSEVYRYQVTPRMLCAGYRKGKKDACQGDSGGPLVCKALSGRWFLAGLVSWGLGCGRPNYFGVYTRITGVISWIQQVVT
Summary of the method: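 Enzyme (7 nM commercial or 15 nM in-house) preincubated 30 min with compound in 100 mM TRIS pH 9, 1 mg/mL BSA, 1% DMSO at 25° C. Boc-Gln-Ala-Arg-AMC substrate at 100 μM; fluorescence (Ex 360/Em 480 nm) read 60 min later. Screened at 1 and 10 μM; IC50 from variable-slope sigmoidal fit.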

N=C(N)c1ccc2cc(C(=O)Nc3ccc4[nH]cnc4c3)n(Cc3ccc(C(N)=O)cc3)c2c1 [Compound I-74] and N=C(N)c1ccc2cc(C(=O)Nc3cccc([N+](=O)[O-])c3)n(Cc3ccc(C(N)=O)cc3)c2c1 [Compound I-131] fall in the same range of inhibition at 1 µM: 0 to 25% for the first, 0 to 25% for the second.

C[C@@H](NC(=O)c1cc2ccc(C(=N)N)cc2n1Cc1ccc(C(N)=O)cc1)c1ccccc1 [Compound I-70] and N=C(N)c1ccc2cc(C(=O)Nc3ccc(-c4ccccc4)cc3)n(Cc3ccc(C(N)=O)cc3)c2c1 [Compound I-66] fall in the same range of inhibition at 1 µM: 0 to 25% for the first, 0 to 25% for the second.

N=C(N)c1ccc2cc(C(=O)NCC3CCC(O)CC3)n(CCS(=O)(=O)c3ccccc3)c2c1 (stereo not shown) [Compound I-52] and CC1CCC(NC(=O)c2cc3ccc(C(=N)N)cc3n2CCS(=O)(=O)c2ccccc2)CC1 (stereo not shown) [Compound I-46] fall in the same range of inhibition at 1 µM: 0 to 25% for the first, 0 to 25% for the second.

N=C(N)c1ccc2cc(C(=O)Nc3ccc(Br)cc3F)n(Cc3ccc(C(N)=O)cc3)c2c1 [Compound I-145] and N=C(N)c1ccc2cc(C(=O)Nc3cc(F)ccn3)n(Cc3ccc(C(N)=O)cc3)c2c1 [Compound I-169] fall in the same range of inhibition at 1 µM: 0 to 25% for the first, 0 to 25% for the second.

N=C(N)c1ccc2cc(C(=O)Nc3cccc(C(N)=O)c3)n(CCc3ccccc3)c2c1 [Compound I-26] and N=C(N)c1ccc2cc(C(=O)NCc3cccc(F)c3)n(Cc3ccc(C(N)=O)cc3)c2c1 [Compound I-76] fall in the same range of inhibition at 1 µM: 0 to 25% for the first, 0 to 25% for the second.

First: N=C(N)c1ccc2cc(C(=O)NC3CCC(F)(F)CC3)n(Cc3ccc(C(N)=O)cc3)c2c1 [Compound I-190]
Second: N=C(N)c1ccc2cc(C(=O)N[C@H]3CC[C@H](N)CC3)n(Cc3ccc(C(F)(F)F)cc3)c2c1 [Compound I-4]
The inhibition at 1 µM of the first is lower: 0 to 25% for the first, 25 to 50% for the second.

N=C(N)c1ccc2cc(C(=O)Nc3cccc(N4CCCCC4)c3)n(Cc3ccc(C(N)=O)cc3)c2c1 [Compound I-110] and N=C(N)c1ccc2cc(C(=O)Nc3ccc(N4CCCC4)cc3)n(Cc3ccc(C(N)=O)cc3)c2c1 [Compound I-90] fall in the same range of inhibition at 1 µM: 0 to 25% for the first, 0 to 25% for the second.

N=C(N)c1ccc2cc(C(=O)Nc3ccc(N4CCCC4)c(F)c3)n(Cc3ccc(C(N)=O)cc3)c2c1 [Compound I-104] and N=C(N)c1ccc2cc(C(=O)Nc3cccc(N4CC[C@@H](F)C4)c3)n(Cc3ccc(C(N)=O)cc3)c2c1 [Compound I-140] fall in the same range of inhibition at 1 µM: 0 to 25% for the first, 0 to 25% for the second.

CCc1ccc(-c2cccc(CCn3c(C(=O)N[C@H]4CC[C@H](N)CC4)cc4ccc(C(=N)N)cc43)c2)cc1 [Compound I-35] and N=C(N)c1ccc2cc(C(=O)N[C@H]3CC[C@H](N)CC3)n(CCCc3ccccc3)c2c1 [Compound I-34] fall in the same range of inhibition at 1 µM: 25 to 50% for the first, 25 to 50% for the second.

N=C(N)c1ccc2cc(C(=O)Nc3ccc(C(=O)N4CC[C@H](F)C4)cc3)n(Cc3ccc(C(N)=O)cc3)c2c1 [Compound I-106] gave an inhibition at 1 µM of 0 to 25%.

same assay, conditions: at 1 uM; Assay Used = A; read-out: Mar-2 % inhibition at 1 uM

CC(C)c1ccc(Cn2c(C(=O)N3CCC(CF)CC3)cc3ccc(C(=N)N)cc32)cc1 [Compound I-297] and N=C(N)c1ccc2cc(C(=O)N3CCC(CF)CC3)n(Cc3ccc(-c4ccccc4)cc3)c2c1 [Compound I-308] fall in the same range of inhibition at 1 µM: 0 to 25% for the first, 0 to 25% for the second.

First: N=C(N)c1ccc2cc(C(=O)N[C@H]3CCc4ccccc43)n(Cc3ccc(C(N)=O)cc3)c2c1 [Compound I-202]
Second: N=C(N)c1ccc2cc(C(=O)N[C@H]3CCNC3)n(Cc3ccc(C(N)=O)cc3)c2c1 [Compound I-205]
The inhibition at 1 µM of the first is lower: 0 to 25% for the first, 25 to 50% for the second.

CC1CCC(NC(=O)c2cc3ccc(C(=N)N)cc3n2Cc2ccc(C(=O)NCCN)cc2)CC1 (stereo not shown) [Compound I-224, 1-(4-((2-Aminoethyl)carbamoyl)benzyl)-6-carbamimidoyl-N-(4-methylcyclohexyl)-1H-indole-2-carboxamide] and CC1CCC(NC(=O)c2cc3ccc(C(=N)N)cc3n2Cc2ccc(C(=O)NC3CC3)cc2)CC1 (stereo not shown) [Compound I-219, 6-Carbamimidoyl-1-(4-(cyclopropylcarbamoyl)benzyl)-N-(4-methylcyclohexyl)-1H-indole-2-carboxamide] fall in the same range of inhibition at 1 µM: 0 to 25% for the first, 0 to 25% for the second.

N=C(N)c1ccc2cc(C(=O)N[C@H]3CC[C@H](N)CC3)n(Cc3cccc(C(=O)NCCC(=O)O)c3)c2c1 [Compound I-259, 3-(3-((2-(((1r,4r)-4-Amiocyclohexyl)carbamoyl)-6-carbamimidoyl-1H-indol-1-yl)methyl)benzamido)propanoic Acid] and N=C(N)c1ccc2cc(C(=O)N[C@H]3CC[C@H](N)CC3)n(Cc3ccc(N)cc3)c2c1 [Compound I-261, 1-(4-Aminobenzyl)-N-((1r,4r)-4-aminocyclohexyl)-6-carbamimidoyl-1H-indole-2-carboxamide] fall in the same range of inhibition at 1 µM: 25 to 50% for the first, 25 to 50% for the second.

N=C(N)c1ccc2cc(C(=O)N3CCCC(F)(F)C3)n(Cc3ccc(Oc4ccccc4)cc3)c2c1 [Compound I-315] and N=C(N)c1ccc2cc(C(=O)N3CCC(F)(F)CC3)n(Cc3ccc(-c4ccccc4)cc3)c2c1 [Compound I-306] fall in the same range of inhibition at 1 µM: 0 to 25% for the first, 0 to 25% for the second.

N=C(N)c1ccc2cc(C(=O)N3CCC(CCOCCO)CC3)n(Cc3ccc(C(F)(F)F)cc3)c2c1 [Compound I-287] and CCOC(=O)CCCC1CCN(C(=O)c2cc3ccc(C(=N)N)cc3n2Cc2ccc(C(F)(F)F)cc2)CC1 [Compound I-281] fall in the same range of inhibition at 1 µM: 0 to 25% for the first, 0 to 25% for the second.

CNC(=O)c1ccc(Cn2c(C(=O)NCC3CCCCC3)cc3ccc(C(=N)N)cc32)cc1 [Compound I-215, 6-Carbamimidoyl-N-(cyclohexylmethyl)-1-(4-(methylcarbamoyl)benzyl)-1H-indole-2-carboxamide] and N=C(N)c1ccc2cc(C(=O)NCC3CCCCC3)n(Cc3ccc(C(N)=O)c(Cl)c3)c2c1 [Compound I-229, 6-Carbamimidoyl-1-(3-Chloro-4-carbamoyl-benzyl)-N-(cyclohexylmethyl)-1H-indole-2-carboxamide] fall in the same range of inhibition at 1 µM: 0 to 25% for the first, 0 to 25% for the second.

N=C(N)c1ccc2c(N)c(C(=O)N3CCC4CCCCC4C3)n(CCS(=O)(=O)c3ccccc3)c2c1 (stereo not shown) [Compound I-351] and N=C(N)c1ccc2cc(C(=O)N3CC[C@@H](F)C3)n(CCS(=O)(=O)c3ccccc3)c2c1 [Compound I-341] fall in the same range of inhibition at 1 µM: 0 to 25% for the first, 0 to 25% for the second.

N=C(N)c1ccc2cc(C(=O)NC3CCC(F)(F)CC3)n(Cc3cccc(NC(=O)CCN)c3)c2c1 [Compound I-260, 1-(3-(3-Aminopropanamido)benzyl)-6-carbamimidoyl-N-(4,4-difluorocyclohexyl)-1H-indole-2-carboxamide] and N=C(N)c1ccc2cc(C(=O)N3CCC(F)(F)CC3)n(Cc3cccc(NC(=O)CCN)c3)c2c1 [Compound I-367] fall in the same range of inhibition at 1 µM: 0 to 25% for the first, 0 to 25% for the second.

Compared with NC(=O)c1ccc(Cn2c(C(=O)Nc3ccc(N4CCCC4)cc3)cc3ccc(/C(N)=N/O)cc32)cc1 [Compound I-268, 1-(4-Carbamoylbenzyl)-6-(N′-hydroxycarbamimidoyl)-N-(4-(pyrrolidin-1-yl)phenyl)-1H-indole-2-carboxamide], NCCCC(=O)Nc1ccc(Cn2c(C(=O)N3CCC(CCN)CC3)cc3ccc(/C(N)=N/O)cc32)cc1 [Compound I-384] is higher in inhibition at 1 µM: 0 to 25% for the first, 25 to 50% for the second.

N=C(N)c1ccc2cc(C(=O)N[C@H]3CC[C@H](N)CC3)n(Cc3cccc(Oc4ccccc4)c3)c2c1 [Compound I-240] and N=C(N)c1ccc2cc(C(=O)N[C@H]3CC[C@H](N)CC3)n(Cc3ccc(Oc4ccc(Cl)cc4)cc3)c2c1 [Compound I-247] fall in the same range of inhibition at 1 µM: 50 to 75% for the first, 50 to 75% for the second.

First: N=C(N)c1ccc2cc(C(=O)N3CCC(CCN)CC3)n(CCc3ccc(F)cc3)c2c1 [Compound I-301]
Second: N=C(N)c1ccc2cc(C(=O)N3CCC(C(F)(F)F)CC3)n(Cc3ccc(C(N)=O)cc3)c2c1 [Compound I-329]
The inhibition at 1 µM of the first is higher: 25 to 50% for the first, 0 to 25% for the second.

N=C(N)c1ccc2c(Cl)c(C(=O)N3CCC(F)(F)C3)n(Cc3ccc(C(N)=O)cc3)c2c1 [Compound I-354] and N=C(N)c1ccc2cc(C(=O)N3CCC(F)(F)CC3)n(Cc3ccc(NC(=O)CCN)cc3)c2c1 [Compound I-374] fall in the same range of inhibition at 1 µM: 0 to 25% for the first, 0 to 25% for the second.

N=C(N)c1ccc2cc(C(=O)N3CCC[C@@H](CF)C3)n(Cc3cccc(C(N)=O)c3)c2c1 [Compound I-325] and N=C(N)c1ccc2cc(C(=O)N3CCC(F)(F)CC3)n(Cc3ccc(OC(F)(F)F)cc3)c2c1 [Compound I-290] fall in the same range of inhibition at 1 µM: 0 to 25% for the first, 0 to 25% for the second.

N=C(N)c1ccc2c(N)c(C(=O)N3CCC(CCNC(=O)O)CC3)n(Cc3ccc(Oc4ccccc4)cc3)c2c1 [Compound I-347] and CCOC(=O)c1ccc(Cn2c(C(=O)N3CCC(CCN)CC3)c(N)c3ccc(C(=N)N)cc32)cc1 [Compound I-346] fall in the same range of inhibition at 1 µM: 0 to 25% for the first, 0 to 25% for the second.
